Measured values taken from article PMC5216056 (Nature Communications, 2017).
Several values for one entry are separate records, joined by “and”; a condition that tells them apart may be missing. Identical values can stand only once. Like-named read-outs stand apart in the source and are kept apart here.

Tests used:
hCB2R = hCB2R (Homo sapiens, UniProt P34972); experiment: biochemical; assay type: binding
[1] = 1 μM
[2] = tested on: AEA cellular uptake in HMC-1 cells; experiment: cells; assay type: cell-based, human
Rat recombinant TRPV4 = target: T1, Rat recombinant TRPV4 (Rattus norvegicus, UniProt Q9ERZ8); experiment: cell-based; assay type: cell-based; conditions: for IC50: vs 4αPDD 1μM, read-out: TRPV4 IC50 for desensitization
T1 construct: expressed in transfected cells; host or cells: HEK293 (TRPV4-HEK-293, gift from HB Bradshaw, Indiana University)

FAAH = target: T2, FAAH (Homo sapiens, UniProt O00519); experiment: FAAH activity, U937 cell homogenate; assay type: biochemical; conditions: for inhibition at 5 µM: read-out: FAAH % inhibition at 5 µM
T2 construct: host or cells: U937
T2 sequence (O00519 1-579): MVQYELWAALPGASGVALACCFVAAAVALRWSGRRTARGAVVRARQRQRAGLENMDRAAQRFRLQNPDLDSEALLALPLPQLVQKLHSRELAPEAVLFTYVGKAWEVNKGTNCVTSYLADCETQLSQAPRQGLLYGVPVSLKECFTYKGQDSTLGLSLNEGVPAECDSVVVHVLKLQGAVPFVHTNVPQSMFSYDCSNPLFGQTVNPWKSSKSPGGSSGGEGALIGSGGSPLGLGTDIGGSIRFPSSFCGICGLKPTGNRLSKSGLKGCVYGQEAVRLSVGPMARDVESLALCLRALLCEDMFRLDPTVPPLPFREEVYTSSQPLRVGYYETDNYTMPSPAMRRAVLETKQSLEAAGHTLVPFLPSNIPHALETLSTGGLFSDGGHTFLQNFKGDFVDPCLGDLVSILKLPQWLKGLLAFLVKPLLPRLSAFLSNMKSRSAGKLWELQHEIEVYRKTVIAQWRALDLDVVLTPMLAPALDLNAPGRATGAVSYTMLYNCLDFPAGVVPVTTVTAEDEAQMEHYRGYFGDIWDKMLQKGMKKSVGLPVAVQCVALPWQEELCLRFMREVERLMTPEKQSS
Method: FAAH activity was assessed using U937 cell homogenate (source: U937 cells were purchased from ATCC, Manassas, VA, USA). Tested compounds (at the concentrations of 1 and 5 μM) or solvent (≤1% of the final volume) were pre-incubated at 37 °C for 30 min with 100 μg of cell homogenate diluted in assay buffer (10 mM Tris-HCl and 1 mM EDTA, pH 7.6 and 1% w/v fatty acid-free BSA). Successively, a mixture of 99.5 nM […] of AEA and 0.5 nM of [ethanolamine-1-3H]-AEA (40–60 Ci mmol^−1) was added to the homogenate (final concentration of 100 nM) and incubated for 10 min at 37 °C under shaking. After the incubation time, 2 volumes of an ice-cold methanol: chloroform mixture 1:1 (v/v) were added to each sample, vigorously vortexed and centrifuged at 10,000g for 10 min at 4 °C to separate aqueous and organic phases. The aqueous phases were collected and the radioactivity associated with the hydrolysis product [3H]-ethanolamine was measured after addition of 3 ml of scintillation cocktail using the Tri-Carb 2100 TR scintillation counter. Data were collected from three independent experiments performed in triplicate and results were expressed as FAAH activity, relative to that in vehicle-treated samples (=100%).

[3] = tested on: AEA cellular uptake in U937 cells; experiment: cells; assay type: cell-based, human; conditions: for AEA reuptake Efficacy (% inhibition) U937 cells: from dose-response
AT1 (h) = target: T3, AT1 (h) (Homo sapiens, UniProt P30556); experiment: CEREP panel; assay type: binding; conditions: for inhibition at 10 µM: read-out: % inhibition AT1 (h)
T3 construct: CEREP
T3 sequence (P30556 1-359): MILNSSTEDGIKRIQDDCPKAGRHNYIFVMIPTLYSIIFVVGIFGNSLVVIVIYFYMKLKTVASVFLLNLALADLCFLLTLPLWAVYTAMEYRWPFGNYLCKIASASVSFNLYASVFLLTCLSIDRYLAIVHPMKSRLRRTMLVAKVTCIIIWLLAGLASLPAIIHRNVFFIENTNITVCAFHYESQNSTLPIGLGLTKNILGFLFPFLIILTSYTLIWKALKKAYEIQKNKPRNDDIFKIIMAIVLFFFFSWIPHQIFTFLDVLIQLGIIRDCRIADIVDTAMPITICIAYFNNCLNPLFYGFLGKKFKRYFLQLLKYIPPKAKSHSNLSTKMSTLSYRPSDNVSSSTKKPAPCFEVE

kappa (KOP) = target: T4, kappa (KOP) (Rattus norvegicus, UniProt P34975); experiment: CEREP panel; assay type: binding
T4 construct: CEREP (contract assay)

beta 1 (h) = target: T5, beta 1 (h) (Homo sapiens, UniProt P08588); experiment: biochemical; assay type: binding; conditions: for inhibition at 10 µM: read-out: % inhibition beta 1 (h)
T5 construct: CEREP

alpha 1A (h) = target: T6, alpha 1A (h) (Homo sapiens, UniProt P35348); experiment: CEREP panel; assay type: binding; conditions: for inhibition at 10 µM: read-out: % inhibition alpha 1A (h)
T6 construct: CEREP
T6 sequence (P35348 1-466): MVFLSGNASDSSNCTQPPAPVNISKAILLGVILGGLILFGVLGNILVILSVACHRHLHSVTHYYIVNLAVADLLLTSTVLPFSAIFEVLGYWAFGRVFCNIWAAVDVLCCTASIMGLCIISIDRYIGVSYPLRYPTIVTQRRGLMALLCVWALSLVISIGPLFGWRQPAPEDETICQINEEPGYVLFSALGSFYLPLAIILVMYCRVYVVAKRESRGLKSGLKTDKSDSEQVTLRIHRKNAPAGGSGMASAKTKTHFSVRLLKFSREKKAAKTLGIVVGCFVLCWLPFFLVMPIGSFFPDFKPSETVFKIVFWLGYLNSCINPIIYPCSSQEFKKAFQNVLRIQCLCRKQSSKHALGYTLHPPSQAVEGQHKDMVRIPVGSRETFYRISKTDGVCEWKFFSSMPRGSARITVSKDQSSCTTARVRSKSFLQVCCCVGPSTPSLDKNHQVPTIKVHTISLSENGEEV

hGPR55 = target: T7, hGPR55 (Homo sapiens, UniProt Q9Y2T6); experiment: cell-based
T7 construct: host or cells: CHO-K1 (PathHunter hGPR55_bgal)

Na+ channel (site 2) = assay type: binding; conditions: 10 µM
AR (h) = experiment: CEREP panel; assay type: binding, human; conditions: 10 µM
[4] = 1 μM; remark: listed apart in the source
[5] = CHO membranes, Leiden, HU210 and SR144528 from Roche
[6] = read-out: AEA reuptake IC50 (95% CI) HMC-1 cells, FAAH-deficient cells
[7] = read-out: AEA reuptake IC50 (95% CI) U937 cells
[8] = β-arrestin recruitment, read-out: GPR55 pEC50 (± SEM) (converted)
[9] = Homo sapiens, U-937, read-out: AEA reuptake IC50 (95% CI) U937 cells

T5 sequence (P08588 whole entry): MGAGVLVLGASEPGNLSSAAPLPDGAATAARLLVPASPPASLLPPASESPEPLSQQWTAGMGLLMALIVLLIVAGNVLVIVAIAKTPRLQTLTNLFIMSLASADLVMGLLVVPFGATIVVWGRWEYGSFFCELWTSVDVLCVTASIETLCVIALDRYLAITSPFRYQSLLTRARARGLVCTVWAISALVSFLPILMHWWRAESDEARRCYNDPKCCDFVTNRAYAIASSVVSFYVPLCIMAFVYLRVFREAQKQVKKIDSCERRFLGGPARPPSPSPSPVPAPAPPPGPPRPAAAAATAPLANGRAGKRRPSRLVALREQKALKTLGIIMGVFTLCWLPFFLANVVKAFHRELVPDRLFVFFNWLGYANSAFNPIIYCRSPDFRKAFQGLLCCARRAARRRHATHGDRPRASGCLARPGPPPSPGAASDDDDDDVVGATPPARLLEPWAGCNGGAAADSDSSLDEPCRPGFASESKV
hCB2R, sequence (P34972 whole entry): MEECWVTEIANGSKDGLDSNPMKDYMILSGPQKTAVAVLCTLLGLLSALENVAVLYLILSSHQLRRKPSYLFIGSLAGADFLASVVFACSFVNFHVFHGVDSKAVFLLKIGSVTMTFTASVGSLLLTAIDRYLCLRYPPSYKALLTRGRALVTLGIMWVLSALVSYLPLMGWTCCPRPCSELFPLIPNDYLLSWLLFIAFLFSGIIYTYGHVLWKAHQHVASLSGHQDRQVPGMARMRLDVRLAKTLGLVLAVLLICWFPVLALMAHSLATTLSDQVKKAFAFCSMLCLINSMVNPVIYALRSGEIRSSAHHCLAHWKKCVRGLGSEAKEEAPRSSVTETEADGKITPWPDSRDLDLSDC
T1 sequence (Q9ERZ8 whole entry): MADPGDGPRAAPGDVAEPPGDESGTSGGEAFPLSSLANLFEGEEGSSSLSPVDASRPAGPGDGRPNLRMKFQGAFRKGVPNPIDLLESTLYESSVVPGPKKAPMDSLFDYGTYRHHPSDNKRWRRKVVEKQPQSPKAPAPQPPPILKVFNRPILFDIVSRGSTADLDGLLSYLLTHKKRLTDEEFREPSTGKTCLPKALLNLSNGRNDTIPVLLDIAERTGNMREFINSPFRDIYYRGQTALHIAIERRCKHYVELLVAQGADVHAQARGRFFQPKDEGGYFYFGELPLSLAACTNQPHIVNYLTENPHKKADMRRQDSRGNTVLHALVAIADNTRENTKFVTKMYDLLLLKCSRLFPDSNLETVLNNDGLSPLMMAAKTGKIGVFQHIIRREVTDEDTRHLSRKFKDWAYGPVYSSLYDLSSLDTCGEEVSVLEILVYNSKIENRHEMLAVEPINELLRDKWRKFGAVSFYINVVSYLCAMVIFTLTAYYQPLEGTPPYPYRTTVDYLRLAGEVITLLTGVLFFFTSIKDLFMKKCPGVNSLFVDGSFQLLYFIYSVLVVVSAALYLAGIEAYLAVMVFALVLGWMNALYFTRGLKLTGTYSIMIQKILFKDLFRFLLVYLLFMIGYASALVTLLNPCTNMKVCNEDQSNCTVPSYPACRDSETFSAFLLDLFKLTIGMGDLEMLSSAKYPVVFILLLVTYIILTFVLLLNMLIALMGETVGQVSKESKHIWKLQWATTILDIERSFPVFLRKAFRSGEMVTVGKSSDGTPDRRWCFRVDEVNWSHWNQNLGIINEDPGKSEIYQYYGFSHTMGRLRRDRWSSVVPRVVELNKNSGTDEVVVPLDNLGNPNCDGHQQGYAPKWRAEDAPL
T7 sequence (Q9Y2T6 whole entry): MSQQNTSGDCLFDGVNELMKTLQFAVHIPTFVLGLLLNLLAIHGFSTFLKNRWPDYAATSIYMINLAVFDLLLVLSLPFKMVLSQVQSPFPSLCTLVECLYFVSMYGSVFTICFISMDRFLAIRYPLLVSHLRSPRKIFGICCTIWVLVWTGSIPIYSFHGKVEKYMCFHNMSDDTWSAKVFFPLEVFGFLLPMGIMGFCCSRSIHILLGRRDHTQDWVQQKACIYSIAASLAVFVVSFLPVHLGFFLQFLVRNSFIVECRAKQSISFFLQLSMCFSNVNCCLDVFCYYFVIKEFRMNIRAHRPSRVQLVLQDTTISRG
T4 sequence (P34975 whole entry): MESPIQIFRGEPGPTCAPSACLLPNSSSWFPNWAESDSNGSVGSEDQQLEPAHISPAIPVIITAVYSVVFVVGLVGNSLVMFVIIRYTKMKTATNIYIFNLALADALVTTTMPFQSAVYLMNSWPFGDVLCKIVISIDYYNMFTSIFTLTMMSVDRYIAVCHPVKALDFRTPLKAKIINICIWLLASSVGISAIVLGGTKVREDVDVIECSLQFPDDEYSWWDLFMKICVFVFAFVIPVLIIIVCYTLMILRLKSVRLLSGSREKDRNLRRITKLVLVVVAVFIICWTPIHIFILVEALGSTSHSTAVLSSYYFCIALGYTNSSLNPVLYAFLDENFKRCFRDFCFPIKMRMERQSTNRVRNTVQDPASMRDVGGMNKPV

CN1CCCCC1Cn1cc(C(=O)c2cc([N+](=O)[O-])ccc2I)c2ccccc21 (racemic) [(rac)-AM1241]
CB2R Selectivity (binding, human) (hCB2R): 32
pKi ± SEM hCB2R (hCB2R; [5]): 8.39 ± 0.10
CL microsomes mouse [1]: 254 µL/min/mg protein

CCCCC/C=C\C/C=C\C/C=C\C/C=C\CCCC(=O)OC(CO)CO [2-AG, 2-arachidonoyl glycerol]
Ki (hCB2R; CHO membranes, Leiden, HU210 and SR144528 from Roche, read-out: pKi ± SEM hCB2R (converted)): ~0.1 µM and 0.115 µM

CN1CCCC[C@@H]1Cn1cc(C(=O)c2cc([N+](=O)[O-])ccc2I)c2ccccc21 [(R)-AM1241]
IC50 [2, 6]: > 5 µM
TRPV4 Efficacy (% ionomycin 4μM) (Rat recombinant TRPV4): < 10%
IC50 (Rat recombinant TRPV4): 8.7 ± 0.5 µM
CB2R Selectivity (binding, human) (hCB2R; 10^(pKi CB2R-pKi CB1R)): 38 fold
pKi ± SEM hCB2R (hCB2R; [5]): 8.44 ± 0.25
FAAH % inhibition at 5 µM (FAAH; 5 µM, U937 cell homogenate): < 25%
AEA reuptake Efficacy (% inhibition) U937 cells [3]: 77%
IC50 [3, 7]: 4.81 µM
CL microsomes mouse [1]: 314 µL/min/mg protein

Cc1c(C(=O)NN2CCCCC2)nn(-c2ccc(Cl)cc2Cl)c1-c1ccc(I)cc1 [AM251]
% inhibition AT1 (h) (AT1 (h); 10 µM): 36%
TRPV4 Efficacy (% ionomycin 4μM) (Rat recombinant TRPV4): < 10%
% inhibition kappa (KOP) (kappa (KOP); 10 µM): 94%
% inhibition beta 1 (h) (beta 1 (h); 10 µM): 25%
FAAH % inhibition at 5 µM (FAAH; 5 µM, U937 cell homogenate): < 50% and 30–40%
% inhibition alpha 1A (h) (alpha 1A (h); 10 µM): 6%
GPR55 pEC50 (± SEM) (hGPR55): 5.49±0.09
GPR55 Emax ± SEM (%) or % effect at 10 µM (hGPR55; β-arrestin recruitment): 82±9%

CCCCC/C=C\C/C=C\C/C=C\C/C=C\CCCC(=O)NCCO [Anandamide, N-arachidonoylethanolamine]
EC50 (hGPR55; [8]): > 10 µM

CCCCCCC(C)(C)c1ccc([C@@H]2C[C@H](O)CC[C@H]2CCCO)c(O)c1 [CP55940]
% inhibition Na+ channel (site 2) (Na+ channel (site 2)): 71%
inhibition at 10 µM (AT1 (h); 10 µM): 63%
inhibition at 10 µM (kappa (KOP)): 74%
inhibition at 10 µM (beta 1 (h); 10 µM): 14%
% inhibition AR (h) (AR (h)): -28%
inhibition at 10 µM (alpha 1A (h); 10 µM): 57%
EC50 (hGPR55; [8]): > 10 µM

CCCCCCC(C)(C)c1cc(OC)c([C@@H]2C=C(CO)[C@@H]3C[C@H]2C3(C)C)c(OC)c1 [HU308]
% inhibition Na+ channel (site 2) (Na+ channel (site 2)): 30%
IC50 ([2]; Homo sapiens, HMC1, read-out: AEA reuptake IC50 (95% CI) HMC-1 cells): > 5 µM
inhibition at 10 µM (AT1 (h)): 53%
TRPV4 Efficacy (% ionomycin 4μM) (Rat recombinant TRPV4): < 10%
IC50 (Rat recombinant TRPV4): > 100 µM
inhibition at 10 µM (beta 1 (h)): -11%
inhibition at 5 µM (FAAH): < 25%
IC50 [3, 9]: 1.81 µM
AEA reuptake Efficacy (% inhibition) U937 cells [3]: 62%
inhibition at 10 µM (alpha 1A (h)): 2%
EC50 (hGPR55): > 10 µM
Emax at 10 µM (hGPR55; read-out: GPR55 Emax ± SEM (%) or % effect at 10 µM): -6 ± 5%

CCCCCCC(C)(C)c1cc(OC)c(C2=C[C@H]3CC[C@]2(CO)C3(C)C)c(OC)c1 [HU910]
% inhibition Na+ channel (site 2) (Na+ channel (site 2)): 5%
IC50 [2, 6]: > 5 µM
% inhibition AT1 (h) (AT1 (h); 10 µM): 37%
TRPV4 Efficacy (% ionomycin 4μM) (Rat recombinant TRPV4): < 10%
IC50 (Rat recombinant TRPV4): > 100 µM
% inhibition beta 1 (h) (beta 1 (h); 10 µM): -4%
pKi ± SEM hCB2R (hCB2R; [5]): 7.22 ± 0.31
CL hepatocytes human [4]: 9.2 µL/min/mio cells
FAAH % inhibition at 5 µM (FAAH; 5 µM, U937 cell homogenate): < 25%
AEA reuptake Efficacy (% inhibition) U937 cells [3]: 70%
IC50 [3, 7]: 1.56 µM
CL microsomes mouse [1]: 464 µL/min/mg protein
% inhibition alpha 1A (h) (alpha 1A (h); 10 µM): 1%
GPR55 Emax ± SEM (%) or % effect at 10 µM (hGPR55; β-arrestin recruitment): -10 ± 3%
GPR55 pEC50 (± SEM) (hGPR55; β-arrestin recruitment): < 5

CCCC(C)(C)c1ccc2c(c1)OC(C)(C)[C@@H]1CC=C(C)C[C@@H]21 [JWH133]
% inhibition Na+ channel (site 2) (Na+ channel (site 2)): -20%
% inhibition AT1 (h) (AT1 (h); 10 µM): 7%
TRPV4 Efficacy (% ionomycin 4μM) (Rat recombinant TRPV4): 13.6%
EC50 (Rat recombinant TRPV4; read-out: TRPV4 Potency EC50): 12 µM
IC50 (Rat recombinant TRPV4): > 100 µM
% inhibition beta 1 (h) (beta 1 (h); 10 µM): -7%
CB2R Selectivity (binding, human) (hCB2R): 153 fold
pKi ± SEM hCB2R (hCB2R): 7.18 ± 0.34
CL hepatocytes human [4]: 5.6 µL/min/mio cells
CL microsomes mouse [1]: 63 µL/min/mg protein
% inhibition alpha 1A (h) (alpha 1A (h); 10 µM): -5%
GPR55 Emax ± SEM (%) or % effect at 10 µM (hGPR55; β-arrestin recruitment): -2 ± 3%
GPR55 pEC50 (± SEM) (hGPR55; β-arrestin recruitment): < 5

Cc1c(C(=O)NN2CCCCC2)nn(-c2ccc(Cl)cc2Cl)c1-c1ccc(Cl)cc1 [SR141716A]
IC50 ([2]; Homo sapiens, HMC1, read-out: AEA reuptake IC50 (95% CI) HMC-1 cells, FAAH-deficient cells): 3.5 µM
TRPV4 Efficacy (% ionomycin 4μM) (Rat recombinant TRPV4): < 10%
IC50 (Rat recombinant TRPV4): 2 ± 0.1 µM
% inhibition AR (h) (AR (h)): 4%
inhibition at 5 µM (FAAH; 5 µM, U937 cell homogenate): < 25%
IC50 [3, 9]: 1.91 µM
AEA reuptake Efficacy (% inhibition) U937 cells [3]: 57%

SR144528
% inhibition Na+ channel (site 2) (Na+ channel (site 2)): 34%
IC50 [2, 6]: > 10 µM
% inhibition AT1 (h) (AT1 (h); 10 µM): 33%
TRPV4 Efficacy (% ionomycin 4μM) (Rat recombinant TRPV4): < 10%
% inhibition beta 1 (h) (beta 1 (h); 10 µM): 41%
% inhibition AR (h) (AR (h)): -12%
AEA reuptake % inhibition, effect at 10 µM, U937 cells ([3]; 10 µM (values marked *)): 30%
IC50 [3, 7]: > 10 µM
% inhibition alpha 1A (h) (alpha 1A (h); 10 µM): -1%
